Holding throughout (type): biochemical
Assay [1] concerns the target T1, KIAA 1361 (baculovirus expressed human KIAA 1361 kinase domain 2-322) (Homo sapiens, UniProt Q7L7X3).
T1 construct: human KIAA 1361 kinase domain 2-322; made in house
T1 sequence (Q7L7X3 2-322): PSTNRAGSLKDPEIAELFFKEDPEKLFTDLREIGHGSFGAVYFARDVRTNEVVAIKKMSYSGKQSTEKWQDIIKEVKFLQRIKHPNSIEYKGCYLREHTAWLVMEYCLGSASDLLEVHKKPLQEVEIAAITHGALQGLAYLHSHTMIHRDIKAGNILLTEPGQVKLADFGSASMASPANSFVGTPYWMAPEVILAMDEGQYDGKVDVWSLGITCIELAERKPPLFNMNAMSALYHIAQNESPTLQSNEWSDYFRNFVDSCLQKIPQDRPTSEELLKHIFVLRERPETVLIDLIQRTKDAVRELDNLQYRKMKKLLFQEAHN
The assay can be described thus: KIAA 1361 Luciferase-Coupled Chemiluminescent Kinase assay (LCCA). As to conditions: 2 μM ATP, 10 μM MBP, 12 nM KIAA 1361, 2 hours; read-out: KIAA1361 inhibition IC50. Put shortly: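 KIAA 1361 kinase domain 2-322 (baculovirus, 12 nM) with 2 μM ATP and 10 μM MBP in Tris pH 7.5, MgCl2, MnCl2; 2 h, ambient. Remaining ATP read by luciferase chemiluminescence; 10 concentrations, IC50 by four-parameter fit.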

The target of assay [2] is T2, JIK (Homo sapiens, UniProt Q9H2K8).
T2 construct: 6 nM JIK (baculovirus expressed human KIAA 1361 kinase domain2-318); made in house
T2 sequence (Q9H2K8 2-318): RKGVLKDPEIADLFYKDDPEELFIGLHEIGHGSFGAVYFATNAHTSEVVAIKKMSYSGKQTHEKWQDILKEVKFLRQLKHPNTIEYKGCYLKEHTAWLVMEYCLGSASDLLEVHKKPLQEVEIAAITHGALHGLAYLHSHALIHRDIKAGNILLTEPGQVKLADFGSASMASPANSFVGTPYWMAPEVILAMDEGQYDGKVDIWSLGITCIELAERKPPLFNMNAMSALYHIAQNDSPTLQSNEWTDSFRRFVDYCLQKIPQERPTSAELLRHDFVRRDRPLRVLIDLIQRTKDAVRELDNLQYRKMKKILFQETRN
Kind of assay: JIK Luciferase-Coupled Chemiluminescent Kinase assay (LCCA). As to conditions: 2 μM ATP, 10 μM MBP, 6 nM JIK, 2 hours; read-out: JIK inhibition IC50. Put shortly: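 Baculovirus-expressed human KIAA 1361 kinase domain 2-318 at 6 nM, with 10 μM MBP and 2 μM ATP in Tris pH 7.5 with Mg/Mn, ran 2 h at ambient temperature. Remaining ATP was read by luciferase chemiluminescence. IC50 comes from a 10-concentration four-parameter fit.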

Assay [3] addresses T3, TAO (Homo sapiens, UniProt Q9UL54).
T3 sequence (Q9UL54 1-1235): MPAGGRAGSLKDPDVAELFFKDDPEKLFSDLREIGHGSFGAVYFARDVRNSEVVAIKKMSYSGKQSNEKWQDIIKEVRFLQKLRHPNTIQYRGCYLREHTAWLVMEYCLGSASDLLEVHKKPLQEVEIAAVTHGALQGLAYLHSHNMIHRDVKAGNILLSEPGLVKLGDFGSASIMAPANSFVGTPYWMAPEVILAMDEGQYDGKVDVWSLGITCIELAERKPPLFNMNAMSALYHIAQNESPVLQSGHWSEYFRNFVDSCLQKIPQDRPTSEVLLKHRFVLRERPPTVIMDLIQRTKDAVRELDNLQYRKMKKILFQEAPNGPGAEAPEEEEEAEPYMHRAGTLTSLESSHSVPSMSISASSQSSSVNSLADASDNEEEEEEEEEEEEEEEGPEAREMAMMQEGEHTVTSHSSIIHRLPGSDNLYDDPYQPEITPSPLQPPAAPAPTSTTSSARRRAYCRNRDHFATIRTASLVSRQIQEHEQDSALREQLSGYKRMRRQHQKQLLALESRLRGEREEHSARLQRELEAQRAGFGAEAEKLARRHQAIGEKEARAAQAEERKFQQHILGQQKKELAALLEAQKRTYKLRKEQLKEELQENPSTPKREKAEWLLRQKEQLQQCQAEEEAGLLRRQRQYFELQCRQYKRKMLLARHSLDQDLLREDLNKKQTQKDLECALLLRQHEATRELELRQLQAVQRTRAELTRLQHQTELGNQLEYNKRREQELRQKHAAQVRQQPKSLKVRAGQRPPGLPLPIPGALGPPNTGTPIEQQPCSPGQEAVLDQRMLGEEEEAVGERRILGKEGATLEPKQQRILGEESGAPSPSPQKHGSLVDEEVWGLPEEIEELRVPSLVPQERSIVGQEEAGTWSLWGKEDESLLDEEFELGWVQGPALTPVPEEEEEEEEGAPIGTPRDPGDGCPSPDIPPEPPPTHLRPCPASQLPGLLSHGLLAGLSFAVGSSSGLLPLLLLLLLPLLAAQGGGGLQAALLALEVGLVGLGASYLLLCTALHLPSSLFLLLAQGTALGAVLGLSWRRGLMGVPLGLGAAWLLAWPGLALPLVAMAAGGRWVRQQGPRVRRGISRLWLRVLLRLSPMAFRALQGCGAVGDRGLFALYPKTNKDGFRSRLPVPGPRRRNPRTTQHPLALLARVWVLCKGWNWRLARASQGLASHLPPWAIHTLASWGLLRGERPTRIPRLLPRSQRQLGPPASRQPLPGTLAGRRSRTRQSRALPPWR
The assay can be described thus: TAO Luciferase-Coupled Chemiluminescent Kinase assay (LCCA). The settings on record: 2 μM ATP, 10 μM MBP, 12 nM TAO, 2 hours; read-out: TAO inhibition IC50.

pIC50: −log10 of the molar value. Bounds are passed on as bounds.

As a reminder, the pIC50 is the negative decadic logarithm of the IC50, by convention in mol/L. Turning to `CCc1ccc(-c2ccc(C(=O)NCC(=O)NCCc3ccccc3)cc2)cc1` [Entry 75, 4′-ethyl-N-{2-oxo-2-[(2-phenylethyl)amino]ethyl}biphenyl-4-carboxamide], the negative logarithm of the IC50 (pIC50) in assay [1], in assay [2] and in assay [3] was below 5.30 in each case.

As for `CCc1ccc(-c2ccc(C(=O)NCC(=O)N[C@@H]3CCCc4ccccc43)cc2)cc1` [Entry 76, 4′-ethyl-N-{2-oxo-2-[(1R)-1,2,3,4-tetrahydronaphthalen-1-ylamino]ethyl}biphenyl-4-carboxamide], the pIC50 in assay [1], in assay [2] and in assay [3] was below 5.30 in each case.

`O=C(CNC(=O)c1ccc(N2CCCCC2)cc1)NC1CCCc2ccccc21` (stereo not drawn) [Entry 77, N-[2-oxo-2-(1,2,3,4-tetrahydronaphthalen-1-ylamino)ethyl]-4-piperidin-1-ylbenzamide]: the values for the pIC50 in assay [1], in assay [2] and in assay [3] were 5.30 to 6.30, 6.30 to 7.30 and 5.30 to 6.30, respectively.

Take `CCc1ccc(-c2ccc(C(=O)NCC(=O)NC(C)c3ccccc3)cc2)cc1` (stereo not drawn) [Entry 78, 4′-ethyl-N-{2-oxo-2-[(1-phenylethyl)amino]ethyl}biphenyl-4-carboxamide]: the pIC50 in assay [1] was 5.30 to 6.30; in assay [2] it was 6.30 to 7.30; in assay [3], below 5.30.

On to `CCc1ccc(-c2ccc(C(=O)NCC(=O)NCc3ccccc3C(F)(F)F)cc2)cc1` [Entry 79, 4′-ethyl-N-[2-oxo-2-({[2-(trifluoromethyl)phenyl]methyl}amino)ethyl]biphenyl-4-carboxamide], for which the pIC50 in assay [1] is 6.30 to 7.30; in assay [2], 6.30 to 7.30; in assay [3] it was below 5.30.

For `O=C(CNC(=O)c1ccc2ncccc2c1)NC1CCCc2ccccc21` (stereo not drawn) [Entry 80, N-[2-oxo-2-(1,2,3,4-tetrahydronaphthalen-1-ylamino)ethyl]quinoline-6-carboxamide], the pIC50 in assay [1] was 5.30 to 6.30; in assay [2], 6.30 to 7.30; in assay [3] it was 5.30 to 6.30.

In the case of `O=C(CC(NC(=O)c1ccccc1)c1ccccc1)NCC(=O)NC1CCCc2ccccc21` (stereo not drawn) [Entry 81, N-(3-oxo-3-{[2-oxo-2-(1,2,3,4-tetrahydronaphthalen-1-ylamino)ethyl]amino}-1-phenylpropyl)benzamide], the negative-log IC50 (pIC50) in assay [1], in assay [2] and in assay [3] was below 5.30 each time.

Take `O=C(CNC(=O)c1ccc2c(c1)CCCC2)NC1CCCc2ccccc21` (stereo not drawn) [Entry 82, N-[2-oxo-2-(1,2,3,4-tetrahydronaphthalen-1-ylamino)ethyl]-5,6,7,8-tetrahydronaphthalene-2-carboxamide]: the negative logarithm of the IC50 (pIC50) is below 5.30 in assay [1], 5.30 to 6.30 in assay [2] and below 5.30 in assay [3].

With `CCc1ccc(-c2ccc(C(=O)NCC(=O)NC(CC)c3ccccc3)cc2)cc1` (stereo not drawn) [Entry 83, 4′-ethyl-N-{2-oxo-2-[(1-phenylpropyl)amino]ethyl}biphenyl-4-carboxamide], the negative logarithm of the IC50 (pIC50) is 5.30 to 6.30 in assay [1], 6.30 to 7.30 in assay [2] and below 5.30 in assay [3].

Take `COc1ccc2nc(NC(=O)CNC(=O)CC(NC(C)=O)c3ccccc3)sc2c1` (stereo not drawn) [Entry 84, 3-(acetylamino)-N-(2-{[6-(methyloxy)-1,3-benzothiazol-2-yl]amino}-2-oxoethyl)-3-phenylpropanamide]: the pIC50 in assay [1], in assay [2] and in assay [3] was below 5.30 in each case.

Regarding `COc1ccc2nc(NC(=O)CNC(=O)CCNC(=O)c3ccccc3)sc2c1` [Entry 85, N-(phenylcarbonyl)-beta-alanyl-N-[6-(methyloxy)-1,3-benzothiazol-2-yl]glycinamide], the pIC50 in assay [1], in assay [2] and in assay [3] was below 5.30 in each case.

As to `O=C(CNC(=O)c1ccc2ncccc2c1)Nc1cccc2c1CCCC2` [Entry 86, N-[2-oxo-2-(5,6,7,8-tetrahydronaphthalen-1-ylamino)ethyl]quinoline-6-carboxamide], the pIC50 in assay [1], in assay [2] and in assay [3] was below 5.30 in each case.

In the case of `O=C(CNC(=O)c1cnc2ccccc2c1)Nc1cccc2c1CCCC2` [Entry 87, N-[2-oxo-2-(5,6,7,8-tetrahydronaphthalen-1-ylamino)ethyl]quinoline-3-carboxamide], the negative logarithm of the IC50 (pIC50) in assay [1], in assay [2] and in assay [3] was below 5.30 in each case.

For `O=C(CCN1CCCCC1)NCC(=O)NC1CCCc2ccccc21` (stereo not drawn) [Entry 88, N-[2-oxo-2-(1,2,3,4-tetrahydronaphthalen-1-ylamino)ethyl]-3-piperidin-1-ylpropanamide], the pIC50 in assay [1], in assay [2] and in assay [3] was below 5.30 each time.

Regarding `O=C(CNC(=O)c1ccc(N2CCCCC2)cc1)Nc1cccc2c1CCCC2` [Entry 89, N-[2-oxo-2-(5,6,7,8-tetrahydronaphthalen-1-ylamino)ethyl]-4-piperidin-1-ylbenzamide], the negative-log IC50 (pIC50) in assay [1], in assay [2] and in assay [3] was below 5.30 in each case.

Regarding `O=C(CC(NC(=O)c1ccccc1)c1ccccc1)NCC(=O)Nc1nc2ccccc2s1` (stereo not drawn) [Entry 90, N-(3-{[2-(1,3-benzothiazol-2-ylamino)-2-oxoethyl]amino}-3-oxo-1-phenylpropyl)benzamide], the negative logarithm of the IC50 (pIC50) was 6.30 to 7.30 in assay [1], above 7.30 in assay [2] and 6.30 to 7.30 in assay [3].

Turning to `O=C(CNC(=O)N1CCN(c2ccccc2)CC1)NC1CCCc2ccccc21` (stereo not drawn) [Entry 91, N-[2-oxo-2-(1,2,3,4-tetrahydronaphthalen-1-ylamino)ethyl]-4-phenylpiperazine 1-carboxamide], the pIC50 in assay [1], in assay [2] and in assay [3] was below 5.30 each time.

For `O=C(CC(NC(=O)c1ccccc1)c1ccccc1)NCC(=O)Nc1nccs1` (stereo not drawn) [Entry 92, N-(3-oxo-3-{[2-oxo-2-(1,3-thiazol-2-ylamino)ethyl]amino}-1-phenylpropyl)benzamide], the values for the pIC50 in assay [1], in assay [2] and in assay [3] were 5.30 to 6.30, 6.30 to 7.30 and 5.30 to 6.30, respectively.

Take `Cc1csc(NC(=O)CNC(=O)CC(NC(=O)c2ccccc2)c2ccccc2)n1` (stereo not drawn) [Entry 93, N-[3-({2-[(4-methyl-1,3-thiazol-2-yl)amino]-2-oxoethyl}amino)-3-oxo-1-phenylpropyl]benzamide]: the pIC50 in assay [1], in assay [2] and in assay [3] was below 5.30 each time.

Source of the values: patent publication US20070208166A1, “Tao Kinase Modulators And Method Of Use” (Exelixis, Inc., priority 2003, published 2007).
